Here are results for 21 compounds from patent US12275725B2, “Inhibitors of the notch transcriptional activation complex and methods for use of the same” (University of Miami, priority 2019, dated 2025).

Data set [1] is described as follows: Aqueous solubility in SGF, FaSSIF and PBS.
Data set [2] addresses T1, Notch transcriptional activation complex (NTC) (Homo sapiens, UniProt P46531+Q06330).
T1 construct: made in house; host or cells: SF21 insect cells (baculovirus)
The experiment in a line: Notch complex assembly assay (NTC AlphaScreen assay). The class given is binding. On the procedure: Notch Complex Assembly Assay
All recombinant proteins were expressed using baculovirus expression vectors in SF21 cells and purified. Unless otherwise stated, all assays contained 125 fmol of double stranded oligonucleotide, CSL, Notch1 and MAML1 proteins. Reactions were carried out in Tris-buffered saline with 0.1% Tween (“TBS-T”) buffer containing 0.2% bovine serum albumin (“BSA”) and 100 μg/mL salmon sperm DNA. Briefly, the Notch complex was assembled on a biotinylated double stranded (“DS”) oligonucleotide harboring one CSL binding site (5′-[…]-3′). Complex assembly was quantitated using ALPHASCREEN technology (Perkin Elmer). Proteins in the complexes were detected using specific antibodies to either MAML1 (Cell signaling, D3K7B), Notch1 (Abcam, 52627) or CSL (anti-His, Abcam 18184). Streptavidin conjugated […] beads (Perkin Elmer, 6760002) were used to bind the DS oligonucleotide, and Protein-A conjugated […] beads (Perkin Elmer, 6760137) were used to detect antibody-coated proteins. For screening compounds, Notch transcriptional activation complex (“NTC”) components were added to wells that already contained the inhibitor to be assayed and allowed to incubate for 30 minutes. The ALPHASCREEN plate (Perkin Elmer, 6008350) was then read on an Envision Plate reader (Perkin Elmer) as specified by the manufacturer.

The nature of data set [3]: Pharmacokinetic study in mouse plasma. The class given is in vivo. The settings on record: for Cmax: read-out: *C0/Cmax. Here is the method: Pharmacokinetic studies were performed as previously described (Astudillo et al. (2016) Cancer Res). The following treatments were administered: NADi-260 via intraperitoneal (i.p.) route at 100 mg/kg, NADI-260 via intravenous route (i.v.) at 2 mg/kg, NADi-351 via i.p. at 10 mg/kg, NADi-351 via […] at 10 mg/kg and NADi-351 via oral route (PO) at 50 mg/kg. Blood samples were collected from each treatment group and their respective control grounds, plasma was separated from blood immediately by centrifugation at 4000 rpm for 10 min at 4° C. and stored below −70° C. until bioanalysis. All samples were processed for analysis by protein precipitation using acetonitrile and analyzed by fit for purpose LC-MS/MS method. Pharmacokinetic parameters were calculated using the non-compartmental analysis module of Phoenix WinNonlin (Version 6.3). Histological Analysis of Mouse Intestine Tissue

Data set [4] in a line: GSH ethyl ester conjugation / parent remaining in human liver microsomes. The settings on record: for Percentage (%) Parent Remaining in HLM: reacted with GSH. The data set is classed as in vitro ADME.
The next data set deals with OE 33 cell line. Kind of data set: Cell viability, MTT, OE33 cell line. The data set is classed as cell-based, human. The note with it: for IC50: Homo sapiens, OE33, 72 h treatment. The text has this: OE33 cells, human esophageal adenocarcinoma cell lines, were obtained from the European Collection of Cell Culture. SUM-149 and SUM-159, breast cancer cell lines, were obtained from Dr. Joyce Slingerland at the University of Miami School of Medicine. The following cell lines were obtained directly from the ATCC: 786-0, a human renal cell adenocarcinoma cell line; HT-1080, a human fibrosarcoma cell line; MCF-7, a mammary gland adenocarcinoma; T47D, a human mammary ductal carcinoma cell line; and H-23 a non-small cell lung adenocarcinoma cell line. All cell lines were propagated in growth media as specified.

Data set [5] in a line: Metabolism to acid form in mouse hepatocytes. The data set is classed as in vitro ADME. The settings on record: to SSTN-258.
Data set [6] can be described thus: Metabolism to acid form in liver microsomes. The class given is in vitro ADME. The note with it: to SSTN-258.
Where [7] appears, read: pH 1.2, simulated gastric fluid.
Setting [8] is: Table C, NTC AlphaScreen assay, read-out: *IC50.
Setting [9] is: Table E, NTC AlphaScreen assay, read-out: *IC50.
Setting [10] is: ip, NADi-260 i.p. 100 mg/kg, mouse plasma.
Where [11] appears, read: iv, NADi-260 i.v. 2 mg/kg, mouse plasma, back extrapolated, initial three time points only.
Where [12] appears, read: iv, NADi-260 i.v. 2 mg/kg, mouse plasma, initial three time points only.
[13] abbreviates: Table B, read-out: IC50 (μM) NTC.

Structures are written as SMILES. ≈ marks a conversion by molar mass, not a printed value. Where two headings read alike, the source gives them in different places.

T1 sequence (P46531 1754-2555 limits assumed): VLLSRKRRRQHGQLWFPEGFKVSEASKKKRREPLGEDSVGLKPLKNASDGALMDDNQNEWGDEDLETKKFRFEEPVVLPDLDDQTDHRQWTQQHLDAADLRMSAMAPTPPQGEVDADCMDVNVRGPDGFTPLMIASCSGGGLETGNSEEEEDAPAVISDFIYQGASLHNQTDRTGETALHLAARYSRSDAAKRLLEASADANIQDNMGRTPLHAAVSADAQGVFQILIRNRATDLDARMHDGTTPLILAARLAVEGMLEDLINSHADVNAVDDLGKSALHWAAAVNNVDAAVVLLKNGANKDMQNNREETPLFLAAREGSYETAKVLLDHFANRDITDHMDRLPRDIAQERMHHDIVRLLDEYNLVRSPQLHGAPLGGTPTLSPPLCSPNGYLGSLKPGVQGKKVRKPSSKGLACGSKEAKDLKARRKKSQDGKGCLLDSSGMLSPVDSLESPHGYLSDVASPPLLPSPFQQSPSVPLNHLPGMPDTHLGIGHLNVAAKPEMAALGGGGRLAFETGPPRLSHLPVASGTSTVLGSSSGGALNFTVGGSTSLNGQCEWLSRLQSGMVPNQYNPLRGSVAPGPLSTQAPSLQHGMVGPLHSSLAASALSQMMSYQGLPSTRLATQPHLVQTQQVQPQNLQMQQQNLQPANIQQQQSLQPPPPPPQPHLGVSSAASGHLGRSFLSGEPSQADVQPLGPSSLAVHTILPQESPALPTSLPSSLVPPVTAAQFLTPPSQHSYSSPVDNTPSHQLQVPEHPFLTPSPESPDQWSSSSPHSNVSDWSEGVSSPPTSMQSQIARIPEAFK
T1 sequence (Q06330 whole entry): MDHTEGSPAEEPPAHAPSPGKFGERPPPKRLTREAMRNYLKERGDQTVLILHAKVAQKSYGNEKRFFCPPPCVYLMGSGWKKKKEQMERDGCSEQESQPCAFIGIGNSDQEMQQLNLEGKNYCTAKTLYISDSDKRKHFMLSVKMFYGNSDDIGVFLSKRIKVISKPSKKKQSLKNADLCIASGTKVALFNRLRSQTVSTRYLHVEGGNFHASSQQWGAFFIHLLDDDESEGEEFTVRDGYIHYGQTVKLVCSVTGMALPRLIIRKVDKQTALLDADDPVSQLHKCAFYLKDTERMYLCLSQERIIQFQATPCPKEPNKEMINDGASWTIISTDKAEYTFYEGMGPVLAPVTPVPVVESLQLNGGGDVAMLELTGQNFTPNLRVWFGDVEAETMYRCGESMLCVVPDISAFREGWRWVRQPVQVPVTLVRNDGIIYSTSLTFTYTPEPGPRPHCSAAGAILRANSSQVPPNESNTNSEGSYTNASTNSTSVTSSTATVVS

As to `O=C(O)CCCc1ccc(N(CCCl)CCCl)cc1` [Chlorambucil, chlorambucil], the solubility – broadly, the dissolved amount per volume that the medium holds – is 70.4 ± 2.6 µM (≈ 21.4 µg/mL) in data set [1] (setting [7]) and 68.9 ± 1.9 µM (≈ 21 µg/mL) in data set [1] (pH 6.5, fassif).
For `CC/C(=C(/CC)c1ccc(O)cc1)c1ccc(O)cc1` [DES, diethylstilbestrol, reference compound], in the data set “physchem” (pH 7.4, aqueous buffer), the solubility is < 5 µM.
On to `CCN(CC)C(=O)COc1c(F)cc(/C=C2\SC(=S)N(CC(=O)N(C)C)C2=O)cc1OC` [NADi-244], for which the IC50 (commonly the concentration at which inhibition is half-maximal) in data set [2] (setting [8]) is 2.9 µM.
Take `COc1cc(/C=C2\SC(=S)N(CC(=O)N(C)C)C2=O)cc(F)c1OCc1ncco1` [NADi-248]: the “*IC50 (μM)” value in data set [2] (Table C, NTC AlphaScreen assay) is reported as “Inactive”.
For `COc1cc(/C=C2\SC(=S)N(CC(=O)N(C)C)C2=O)cc(F)c1OCc1ncc(C)o1` [NADi-249], the “*IC50 (μM)” value in data set [2] (Table C, NTC AlphaScreen assay) is “Inactive”.
Regarding `COc1cc(/C=C2\SC(=S)N(CC(=O)N(C)C)C2=O)cc(F)c1OCc1nc(C)c(C)o1` [NADi-251], the “*IC50 (μM)” value in data set [2] (Table C, NTC AlphaScreen assay) is “Inactive”.
For `CCc1coc(COc2c(F)cc(/C=C3\SC(=S)N(CC(=O)N(C)C)C3=O)cc2OC)n1` [NADi-253], the IC50 in data set [2] (setting [8]) amounted to 0.3 µM.
Turning to `COc1cc(/C=C2\SC(=S)N(CC(=O)N(C)C)C2=O)cc(F)c1OCc1nnc(C)o1` [NADi-255], the “*IC50 (μM)” value in data set [2] (Table C, NTC AlphaScreen assay) is given as “Inactive”.
Still for that read-out and setting: to `CCc1nnc(COc2c(F)cc(/C=C3\SC(=S)N(CC(=O)N(C)C)C3=O)cc2OC)o1` [NADi-256] belongs “Inactive”; to `COc1cc(/C=C2\SC(=S)N(CC(=O)N(C)C)C2=O)cc(F)c1OCc1nc(C)no1` [NADi-258], “Inactive”; to `CCc1noc(COc2c(F)cc(/C=C3\SC(=S)N(CC(=O)N(C)C)C3=O)cc2OC)n1` [NADi-259], “Inactive”.
Consider `COc1cc(/C=C2\SC(=S)N(CC(=O)N(C)C)C2=O)cc(F)c1OCc1nc[nH]n1` [NADi-260, (Z)-2-(5-(4-((1H-1,2,4-triazol-3-yl)methoxy)-3-fluoro-5-methoxybenzylidene)-4-oxo-2-thioxothiazolidin-3-yl)-N,N-dimethylacetamide], for which the IC50 in data set [2] (setting [8]) came out at 0.02 µM. For the same compound, the 50% inhibitory concentration (IC50) in data set [2] (setting [9]) is 0.02 µM. Moreover, in data set [3] (setting [10]), the total exposure AUC(0-inf) (as a rule, total exposure, with the tail of the curve extrapolated) stood at 5420 ng·h/mL; the exposure AUC(0-t) (usually exposure summed from dosing to a finite time, without extrapolation to infinity) was found to be 5320 ng·h/mL; the time of peak concentration (Tmax) – broadly, the time from dosing to the highest level – turned out to be 4.8 min; the Cmax is 5700 ng/mL. In data set [3] (setting [11]), the Cmax was 837 ng/mL. Also, the clearance (in general, a measure of how efficiently the substance is removed, as volume per time) in data set [3] (iv, NADi-260 i.v. 2 mg/kg, mouse plasma, cell says NR, value in footnote) amounted to 429 mL/min/kg. In data set [3] (setting [12]), the area under the curve AUC(0-inf) is 78 ng·h/mL; the area under the curve AUC(0-t) turned out to be 77 ng·h/mL; the half-life (as a rule, how long it takes for the measured level to halve) is 4.8 min. Further, the Vd in data set [3] (iv, NADi-260 i.v. 2 mg/kg, mouse plasma, read-out: Vss) was determined as 1.79 L/kg. In data set [4] (incubation time 0 min), the “Percentage (%) Parent Remaining in HLM” value worked out at 100%. Further, the “Percentage (%) Parent Remaining in HLM” value in data set [4] (incubation time 60 min) is on record as 46%. The “GSH ethyl ester conjugation in HLM” value in data set [4] (within 60 minutes of incubation) is “showed GSH ethyl ester conjugation”.
For `COc1cc(/C=C2\SC(=S)N(CC(=O)N(C)C)C2=O)cc(F)c1OCc1nnc(C)[nH]1` [NADi-261], the IC50 in data set [2] (setting [8]) came out at 0.62 µM.
Consider `CCc1nnc(COc2c(F)cc(/C=C3\SC(=S)N(CC(=O)N(C)C)C3=O)cc2OC)[nH]1` [NADi-262], for which the IC50 in data set [2] (setting [8]) is 0.08 µM.
As for `COc1ccc2[nH]c([S+]([O-])Cc3ncc(C)c(OC)c3C)nc2c1` (centres unmarked) [Omeprazole, omeprazole, reference compound], the solubility in the data set “physchem” (setting [7]) was < 5 µM; in the data set “physchem” (pH 6.5, fassif) it was 174 ± 5.4 µM (≈ 60 µg/mL).
Turning to `COc1cc(/C=C2\SC(=S)N(CC(=O)N(C)C)C2=O)cc(F)c1O` [PM6], the “plasma level of metabolite” value in data set [3] (after NADi-260 i.v. 2 mg/kg, mouse plasma) is recorded as “BQL”. In data set [3] (setting [10]), the area under the curve AUC(0-t) was found to be 21 ng·h/mL, the Tmax worked out at 15 min and the Cmax is 41 ng/mL.
Regarding `COc1cc(CC2SC(=S)N(CC(=O)N(C)C)C2=O)cc(F)c1OCc1nnc[nH]1` (centres unmarked) [PM7], in data set [3] (setting [10]), the AUC(0-inf) came out at 19100 ng·h/mL, the exposure AUC(0-t) was determined as 18800 ng·h/mL, the Tmax stood at 15 min and the Cmax is 8520 ng/mL. The Cmax in data set [3] (setting [11]) is 3480 ng/mL. In data set [3] (setting [12]), the AUC(0-inf) was 310 ng·h/mL and the exposure AUC(0-t) is 308 ng·h/mL.
On to `CCOC(=O)COc1ccc(F)cc1/C=C1\SC(=S)N(CC(=O)N(C)C)C1=O` [SSTN-251], for which the IC50 amounted to 5.1 µM in data set [2] (setting [13]) and 12.8 µM in the data set on OE 33 cell line.
Turning to `CCOC(=O)COc1c(F)cc(/C=C2\SC(=S)N(CC(=O)N(C)C)C2=O)cc1OC` [SSTN-253], the IC50 is 0.058 µM in data set [2] (setting [13]), 0.06 µM in data set [2] (setting [8]), 0.06 µM in data set [2] (setting [9]) and 9.3 µM in the data set on OE 33 cell line. Also, the “time to metabolize to acid form” value in data set [5] and in data set [6] was ≤ 15 min in each case. The “metabolism in mouse plasma” value in data set [3] (pharmacokinetic study of SSTN-253, FIG. 1C) is “metabolizes to its acid form (SSTN-258)”.
Turning to `COc1cc(/C=C2\SC(=S)N(CC(=O)N(C)C)C2=O)ccc1OCC(=O)O` [SSTN-254], the IC50 in data set [2] (setting [13]) was 4.4 µM; with OE 33 cell line it was > 25 µM.
For `COc1cc(/C=C2\SC(=S)N(CC(=O)N(C)C)C2=O)cc(F)c1OCC(=O)O` [SSTN-258], in data set [2] (FIG. 1B), the “inhibition of NTC assembly” value is given as “did not inhibit”. Also, the “IC50 (μM) NTC” value in data set [2] (Table B) was “Inactive”. In addition, the “Cell viability (MTT, μM, 72 h treatment OE 33 cell line)” value in the data set with OE 33 cell line is recorded as “No effect”.
